Measured values reported in the supplement of paper PMC10307832.

Legend:
Test in all cases: relative viability (nuclei count vs DMSO), 5 days (fraction); higher = more cells survive
XMD13-2 + Dasatinib = compound: C1CC1C(=O)NC2=NNC3=C2C=CC(=C3)C4=CC(=CC=C4)C(=O)NC5CC5 [XMD13-2] + Cc1nc(Nc2ncc(C(=O)Nc3c(C)cccc3Cl)s2)cc(N2CCN(CCO)CC2)n1 [Dasatinib] (partner 0.075 µM)
Procedure, shortened: (§1)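 Values are medians from duplicate plates. Each reflects relative viability, defined as the nuclei count of treated wells over that of vehicle wells. Lung cancer cell lines in 1536-well plates were pin-tool dosed one day after seeding with one drug alone or with a fixed anchor-drug dose plus five library-drug doses (not always all listed) in √10 steps, then fixed, stained and imaged at 4× after 5 days.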

Dasatinib + Pemetrexed = compound: Cc1nc(Nc2ncc(C(=O)Nc3c(C)cccc3Cl)s2)cc(N2CCN(CCO)CC2)n1 [Dasatinib] + Nc1nc2[nH]cc(CCc3ccc(C(=O)N[C@@H](CCC(=O)O)C(=O)O)cc3)c2c(=O)[nH]1 [Pemetrexed] (partner 0.2 µM)
Procedure, shortened: as §1

Dasatinib + Pictilisib = compound: Cc1nc(Nc2ncc(C(=O)Nc3c(C)cccc3Cl)s2)cc(N2CCN(CCO)CC2)n1 [Dasatinib] + CS(=O)(=O)N1CCN(Cc2cc3nc(-c4cccc5[nH]ncc45)nc(N4CCOCC4)c3s2)CC1 [Pictilisib] (partner 1 µM)
Procedure, shortened: as §1

ALW-II-49-7 + Linsitinib = compound: Cc1ccc(C(=O)Nc2cccc(C(F)(F)F)c2)cc1Nc1cncc(C(N)=O)c1 [ALW-II-49-7] + C[C@]1(O)C[C@@H](c2nc(-c3ccc4ccc(-c5ccccc5)nc4c3)c3c(N)nccn32)C1 [Linsitinib] (partner 1 µM)
Procedure, shortened: as §1

UMC-11 showed a relative viability (XMD13-2 + Dasatinib; first compound 0.05 µM) of 0.55, a relative viability (XMD13-2 + Dasatinib; first compound 0.1581 µM) of 0.428 and a relative viability (XMD13-2 + Dasatinib; first compound 0.5 µM) of 0.477. It also gave a relative viability (XMD13-2 + Dasatinib; first compound 1.581 µM) of 0.505, a relative viability (XMD13-2 + Dasatinib; first compound 5 µM) of 0.453 and a relative viability (Dasatinib + Pemetrexed; first compound 0.005 µM) of 0.736. For the same cell line, the relative viability (Dasatinib + Pemetrexed; first compound 0.01581 µM) was 0.656, the relative viability (Dasatinib + Pemetrexed; first compound 0.05 µM) was 0.593 and the relative viability (Dasatinib + Pemetrexed; first compound 0.1581 µM) was 0.469. It also gave a relative viability (Dasatinib + Pemetrexed; first compound 0.5 µM) of 0.391, a relative viability (Dasatinib + Pictilisib; first compound 0.005 µM) of 0.735 and a relative viability (Dasatinib + Pictilisib; first compound 0.01581 µM) of 0.64. The relative viability (Dasatinib + Pictilisib; first compound 0.05 µM) was 0.49, the relative viability (Dasatinib + Pictilisib; first compound 0.1581 µM) was 0.288 and the relative viability (Dasatinib + Pictilisib; first compound 0.5 µM) was 0.288. The relative viability (ALW-II-49-7 + Linsitinib; first compound 0.08 µM) was 0.989, the relative viability (ALW-II-49-7 + Linsitinib; first compound 0.253 µM) was 0.902 and the relative viability (ALW-II-49-7 + Linsitinib; first compound 2.53 µM) was 1.12. For the same cell line, the relative viability (ALW-II-49-7 + Linsitinib; first compound 8 µM) was 1.04.
